Drawing on the NIST ThermoML archive (doi:10.1016/j.fluid.2007.07.039), this text covers binary diffusion coefficient for four compounds.

A short description of the data set: xn = mol fraction of the nth substance listed. Particulars: Liquid, Taylor dispersion method, x1 = 0.

The structures appear in SMILES notation.

With `COc1ccccc1Br` [1-bromo-2-methoxybenzene] + O=C=O, the binary diffusion coefficient (313.16 K, 15000 kPa) came to 9.46e-09 m2/s; the binary diffusion coefficient (313.16 K, 20000 kPa) stood at 8.66e-09 m2/s; the binary diffusion coefficient (313.16 K, 25000 kPa) was 7.92e-09 m2/s; the binary diffusion coefficient (313.16 K, 30000 kPa) worked out at 7.48e-09 m2/s; the binary diffusion coefficient (313.16 K, 35000 kPa) was 7.15e-09 m2/s; the binary diffusion coefficient (323.16 K, 15000 kPa) worked out at 1.15e-08 m2/s. Also, the binary diffusion coefficient (323.16 K, 20000 kPa) turned out to be 1.01e-08 m2/s; the binary diffusion coefficient (323.16 K, 25000 kPa) is 9.08e-09 m2/s; the binary diffusion coefficient (323.16 K, 30000 kPa) was determined as 8.52e-09 m2/s; the binary diffusion coefficient (323.16 K, 35000 kPa) stood at 7.98e-09 m2/s; the binary diffusion coefficient (333.16 K, 15000 kPa) came to 1.28e-08 m2/s; the binary diffusion coefficient (333.16 K, 20000 kPa) was 1.19e-08 m2/s. In addition, the binary diffusion coefficient (333.16 K, 25000 kPa) was 1.06e-08 m2/s; the binary diffusion coefficient (333.16 K, 30000 kPa) was found to be 9.45e-09 m2/s; the binary diffusion coefficient (333.16 K, 35000 kPa) was determined as 8.98e-09 m2/s.
Regarding `COc1ccccc1F` [2-fluoroanisole] + O=C=O, the binary diffusion coefficient (313.16 K, 15000 kPa) is 1.02e-08 m2/s; the binary diffusion coefficient (313.16 K, 20000 kPa) was 9.27e-09 m2/s; the binary diffusion coefficient (313.16 K, 25000 kPa) was determined as 8.69e-09 m2/s; the binary diffusion coefficient (313.16 K, 30000 kPa) was 8.01e-09 m2/s; the binary diffusion coefficient (313.16 K, 35000 kPa) stood at 7.68e-09 m2/s; the binary diffusion coefficient (323.16 K, 15000 kPa) was 1.25e-08 m2/s. The binary diffusion coefficient worked out at 1.05e-08 m2/s (323.16 K, 20000 kPa); 9.89e-09 m2/s (323.16 K, 25000 kPa); 9.14e-09 m2/s (323.16 K, 30000 kPa); 8.65e-09 m2/s (323.16 K, 35000 kPa); 1.43e-08 m2/s (333.16 K, 15000 kPa); 1.23e-08 m2/s (333.16 K, 20000 kPa). The binary diffusion coefficient by setting is: (333.16 K, 25000 kPa) 1.1e-08 m2/s; (333.16 K, 30000 kPa) 1.03e-08 m2/s; (333.16 K, 35000 kPa) 9.67e-09 m2/s.
Turning to `C=Cc1cccc(C=C)c1` [1,3-diethenylbenzene] + O=C=O, the binary diffusion coefficient runs as follows: (313.16 K, 15000 kPa) 1.03e-08 m2/s; (313.16 K, 20000 kPa) 9.44e-09 m2/s; (313.16 K, 25000 kPa) 8.69e-09 m2/s; (313.16 K, 30000 kPa) 8.07e-09 m2/s; (313.16 K, 35000 kPa) 7.69e-09 m2/s; (323.16 K, 15000 kPa) 1.28e-08 m2/s. Further, the binary diffusion coefficient was 1.06e-08 m2/s (323.16 K, 20000 kPa); 9.71e-09 m2/s (323.16 K, 25000 kPa); 8.94e-09 m2/s (323.16 K, 30000 kPa); 8.54e-09 m2/s (323.16 K, 35000 kPa); 1.51e-08 m2/s (333.16 K, 15000 kPa); 1.21e-08 m2/s (333.16 K, 20000 kPa). Besides, the binary diffusion coefficient was 1.11e-08 m2/s (333.16 K, 25000 kPa); 9.95e-09 m2/s (333.16 K, 30000 kPa); 9.47e-09 m2/s (333.16 K, 35000 kPa).
For `C=CCc1ccccc1` [2-propenylbenzene] + O=C=O, the binary diffusion coefficient (313.16 K, 15000 kPa) came to 1.03e-08 m2/s; the binary diffusion coefficient (313.16 K, 20000 kPa) was 9.11e-09 m2/s; the binary diffusion coefficient (313.16 K, 25000 kPa) amounted to 8.93e-09 m2/s; the binary diffusion coefficient (313.16 K, 30000 kPa) came out at 8.29e-09 m2/s; the binary diffusion coefficient (313.16 K, 35000 kPa) was 7.67e-09 m2/s; the binary diffusion coefficient (323.16 K, 15000 kPa) was found to be 1.23e-08 m2/s. The binary diffusion coefficient stood at 1.12e-08 m2/s (323.16 K, 20000 kPa); 1e-08 m2/s (323.16 K, 25000 kPa); 9.35e-09 m2/s (323.16 K, 30000 kPa); 9.01e-09 m2/s (323.16 K, 35000 kPa); 1.41e-08 m2/s (333.16 K, 15000 kPa); 1.22e-08 m2/s (333.16 K, 20000 kPa). Moreover, the binary diffusion coefficient (333.16 K, 25000 kPa) turned out to be 1.15e-08 m2/s; the binary diffusion coefficient (333.16 K, 30000 kPa) is 1.05e-08 m2/s; the binary diffusion coefficient (333.16 K, 35000 kPa) turned out to be 9.87e-09 m2/s.
